# Data from paper PMC9133015 (Nature Communications, 2022).
# “And” between values parts separate entries of the source, which are not always exact repeats. Equal values may be shown once.
# Legend:
# Experiment in all cases: Kinase inhibitor specificity profiling (Reaction Biology Corporation)
# Format in all cases: biochemical
# Parameters in all cases: % Enzyme Activity (relative to DMSO controls): concentration or dose not given beside the values
# [1] = target: T1, panel of 370 protein kinases (Homo sapiens, UniProt Q7L7X3); details: 2 h, kinase TAOK1; read-out: % Enzyme Activity (relative to DMSO controls)
# T1 construct: purchased Reaction Biology Corporation (assay service)
# [2] = target: T2, panel of 370 protein kinases (Homo sapiens, UniProt Q02750); details: 2 h, kinase MEK1; read-out: % Enzyme Activity (relative to DMSO controls)
# T2 construct: purchased Reaction Biology Corporation (assay service)
# [3] = target: T3, panel of 370 protein kinases (Homo sapiens, UniProt Q04759); details: 2 h, kinase PKCtheta; read-out: % Enzyme Activity (relative to DMSO controls)
# T3 construct: purchased Reaction Biology Corporation (assay service)
# [4] = target: T4, panel of 370 protein kinases (Homo sapiens, UniProt Q92918); details: 2 h, kinase HPK1/MAP4K1; read-out: % Enzyme Activity (relative to DMSO controls)
# T4 construct: purchased Reaction Biology Corporation (assay service)
# [5] = target: T5, panel of 370 protein kinases (Homo sapiens, UniProt Q9HBH9); details: 2 h, kinase MNK2; read-out: % Enzyme Activity (relative to DMSO controls)
# T5 construct: purchased Reaction Biology Corporation (assay service)
# [6] = target: T6, panel of 370 protein kinases (Homo sapiens, UniProt Q8TDX7); details: 2 h, kinase NEK7; read-out: % Enzyme Activity (relative to DMSO controls)
# T6 construct: purchased Reaction Biology Corporation (assay service)
# T6 sequence (Q8TDX7 whole entry): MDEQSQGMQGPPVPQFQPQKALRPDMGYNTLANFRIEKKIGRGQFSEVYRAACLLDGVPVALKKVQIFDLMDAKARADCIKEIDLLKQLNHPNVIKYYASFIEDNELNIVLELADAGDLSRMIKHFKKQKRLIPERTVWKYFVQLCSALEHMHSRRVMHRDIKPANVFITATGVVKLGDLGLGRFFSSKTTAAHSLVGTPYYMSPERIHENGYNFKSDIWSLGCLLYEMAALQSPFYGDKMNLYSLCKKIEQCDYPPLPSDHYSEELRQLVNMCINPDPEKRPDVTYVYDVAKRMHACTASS
# [7] = target: T7, panel of 370 protein kinases (Homo sapiens, UniProt Q9H2K8); details: 2 h, kinase TAOK3/JIK; read-out: % Enzyme Activity (relative to DMSO controls)
# T7 construct: purchased Reaction Biology Corporation (assay service)
# [8] = target: T8, panel of 370 protein kinases (Homo sapiens, UniProt Q16832); details: 2 h, kinase DDR2; read-out: % Enzyme Activity (relative to DMSO controls)
# T8 construct: purchased Reaction Biology Corporation (assay service)
# [9] = target: T9, panel of 370 protein kinases (Homo sapiens, UniProt Q9BYT3); details: 2 h, kinase STK33; read-out: % Enzyme Activity (relative to DMSO controls)
# T9 construct: purchased Reaction Biology Corporation (assay service)
# [10] = target: T10, panel of 370 protein kinases (Homo sapiens, UniProt P10398); details: 2 h, kinase ARAF; read-out: % Enzyme Activity (relative to DMSO controls)
# T10 construct: purchased Reaction Biology Corporation (assay service)
# [11] = target: T11, panel of 370 protein kinases (Homo sapiens, UniProt Q9Y572); details: 2 h, kinase RIPK3; read-out: % Enzyme Activity (relative to DMSO controls)
# T11 construct: purchased Reaction Biology Corporation (assay service)
# [12] = target: T12, panel of 370 protein kinases (Homo sapiens, UniProt Q9NYY3); details: kinase PLK2
# T12 construct: purchased Reaction Biology Corporation (assay service)
# T12 sequence (Q9NYY3 whole entry): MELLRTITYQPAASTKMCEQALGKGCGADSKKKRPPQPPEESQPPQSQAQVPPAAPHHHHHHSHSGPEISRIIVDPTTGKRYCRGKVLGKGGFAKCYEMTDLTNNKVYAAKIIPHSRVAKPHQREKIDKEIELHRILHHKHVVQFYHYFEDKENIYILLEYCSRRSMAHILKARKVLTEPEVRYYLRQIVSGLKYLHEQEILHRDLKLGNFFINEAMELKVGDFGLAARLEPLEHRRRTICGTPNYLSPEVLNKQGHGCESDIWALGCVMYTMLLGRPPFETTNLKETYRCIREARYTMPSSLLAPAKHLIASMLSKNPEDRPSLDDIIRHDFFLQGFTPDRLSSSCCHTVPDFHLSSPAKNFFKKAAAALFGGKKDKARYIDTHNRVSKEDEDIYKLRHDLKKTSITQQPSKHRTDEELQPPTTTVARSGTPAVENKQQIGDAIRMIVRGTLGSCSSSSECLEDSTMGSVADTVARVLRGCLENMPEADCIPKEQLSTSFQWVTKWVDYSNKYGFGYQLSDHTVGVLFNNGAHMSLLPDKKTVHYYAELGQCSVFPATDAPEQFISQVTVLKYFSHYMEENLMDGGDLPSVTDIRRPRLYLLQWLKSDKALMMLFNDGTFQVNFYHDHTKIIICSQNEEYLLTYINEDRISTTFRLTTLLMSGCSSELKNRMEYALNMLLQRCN
# [13] = target: T13, panel of 370 protein kinases (Homo sapiens, UniProt P53355); details: 2 h, kinase DAPK1; read-out: % Enzyme Activity (relative to DMSO controls)
# T13 construct: purchased Reaction Biology Corporation (assay service)
# T13 sequence (P53355 whole entry): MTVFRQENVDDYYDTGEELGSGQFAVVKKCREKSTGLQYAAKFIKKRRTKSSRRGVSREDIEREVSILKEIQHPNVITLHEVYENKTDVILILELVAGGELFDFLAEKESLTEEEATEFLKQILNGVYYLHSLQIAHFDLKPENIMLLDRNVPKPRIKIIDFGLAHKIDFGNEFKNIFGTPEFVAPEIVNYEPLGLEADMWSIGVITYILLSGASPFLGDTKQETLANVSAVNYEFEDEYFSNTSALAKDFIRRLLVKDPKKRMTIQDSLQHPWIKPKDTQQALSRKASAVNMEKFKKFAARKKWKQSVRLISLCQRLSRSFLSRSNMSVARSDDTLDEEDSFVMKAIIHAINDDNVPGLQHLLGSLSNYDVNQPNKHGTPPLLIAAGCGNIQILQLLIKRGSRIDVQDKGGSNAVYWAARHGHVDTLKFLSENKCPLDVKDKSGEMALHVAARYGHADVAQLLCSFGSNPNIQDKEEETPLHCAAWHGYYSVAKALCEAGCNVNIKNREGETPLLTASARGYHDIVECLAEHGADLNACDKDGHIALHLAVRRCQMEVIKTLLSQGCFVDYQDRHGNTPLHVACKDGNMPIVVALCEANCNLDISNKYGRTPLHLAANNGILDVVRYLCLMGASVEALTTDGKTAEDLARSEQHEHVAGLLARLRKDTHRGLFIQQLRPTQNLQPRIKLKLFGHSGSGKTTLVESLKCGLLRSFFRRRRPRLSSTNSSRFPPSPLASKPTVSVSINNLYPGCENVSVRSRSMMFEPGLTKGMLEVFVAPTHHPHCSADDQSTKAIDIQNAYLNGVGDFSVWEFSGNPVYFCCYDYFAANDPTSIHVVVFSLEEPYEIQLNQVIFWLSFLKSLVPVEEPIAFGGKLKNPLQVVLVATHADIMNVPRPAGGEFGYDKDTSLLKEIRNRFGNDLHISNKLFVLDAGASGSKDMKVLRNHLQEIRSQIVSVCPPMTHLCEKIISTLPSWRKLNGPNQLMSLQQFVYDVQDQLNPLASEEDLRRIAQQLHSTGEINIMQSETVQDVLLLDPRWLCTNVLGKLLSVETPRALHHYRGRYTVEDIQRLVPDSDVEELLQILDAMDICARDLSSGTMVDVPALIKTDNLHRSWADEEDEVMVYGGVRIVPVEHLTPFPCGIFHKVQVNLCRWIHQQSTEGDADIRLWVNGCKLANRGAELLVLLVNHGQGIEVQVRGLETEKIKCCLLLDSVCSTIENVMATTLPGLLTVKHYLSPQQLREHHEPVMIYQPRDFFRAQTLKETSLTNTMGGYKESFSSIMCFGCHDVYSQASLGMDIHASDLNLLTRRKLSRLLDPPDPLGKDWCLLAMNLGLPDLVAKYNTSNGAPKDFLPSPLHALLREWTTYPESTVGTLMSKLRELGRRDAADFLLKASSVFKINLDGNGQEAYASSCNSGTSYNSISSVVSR
# [14] = target: T14, panel of 370 protein kinases (Homo sapiens, UniProt Q96S53); details: 2 h, kinase TESK2; read-out: % Enzyme Activity (relative to DMSO controls)
# T14 construct: purchased Reaction Biology Corporation (assay service)
# [15] = target: T15, panel of 370 protein kinases (Homo sapiens, UniProt P48729); details: 2 h, kinase CK1a1; read-out: % Enzyme Activity (relative to DMSO controls)
# T15 construct: purchased Reaction Biology Corporation (assay service)
# [16] = target: T16, panel of 370 protein kinases (Homo sapiens, UniProt Q9UPZ9); details: 2 h, kinase LCK2/ICK; read-out: % Enzyme Activity (relative to DMSO controls)
# T16 construct: purchased Reaction Biology Corporation (assay service)
# [17] = target: T17, panel of 370 protein kinases (Homo sapiens, UniProt Q9Y6E0); details: kinase MST3/STK24
# T17 construct: purchased Reaction Biology Corporation (assay service)
# T17 sequence (Q9Y6E0 whole entry): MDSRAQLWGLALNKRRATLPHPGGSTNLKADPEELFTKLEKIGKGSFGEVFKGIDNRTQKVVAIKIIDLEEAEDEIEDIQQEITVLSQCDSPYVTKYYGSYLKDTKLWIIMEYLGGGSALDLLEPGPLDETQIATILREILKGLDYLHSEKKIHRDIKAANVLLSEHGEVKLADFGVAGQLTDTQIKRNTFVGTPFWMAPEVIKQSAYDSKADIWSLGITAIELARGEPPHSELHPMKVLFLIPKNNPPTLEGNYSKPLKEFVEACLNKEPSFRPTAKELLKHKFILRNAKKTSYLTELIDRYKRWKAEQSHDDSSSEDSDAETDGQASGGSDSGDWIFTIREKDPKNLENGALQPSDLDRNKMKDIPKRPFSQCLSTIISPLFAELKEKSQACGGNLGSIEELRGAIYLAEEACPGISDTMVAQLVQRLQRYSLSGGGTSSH
# [18] = target: T18, panel of 370 protein kinases (Homo sapiens, UniProt Q6VAB6); details: 2 h, kinase KSR2; read-out: % Enzyme Activity (relative to DMSO controls)
# T18 construct: purchased Reaction Biology Corporation (assay service)
# [19] = target: T19, panel of 370 protein kinases (Homo sapiens, UniProt Q7KZI7); details: 2 h, kinase MARK2/PAR-1Ba; read-out: % Enzyme Activity (relative to DMSO controls)
# T19 construct: purchased Reaction Biology Corporation (assay service)
# [20] = target: T20, panel of 370 protein kinases (Homo sapiens, UniProt Q9H2X6); details: 2 h, kinase HIPK2; read-out: % Enzyme Activity (relative to DMSO controls)
# T20 construct: purchased Reaction Biology Corporation (assay service)
# T20 sequence (Q9H2X6 whole entry): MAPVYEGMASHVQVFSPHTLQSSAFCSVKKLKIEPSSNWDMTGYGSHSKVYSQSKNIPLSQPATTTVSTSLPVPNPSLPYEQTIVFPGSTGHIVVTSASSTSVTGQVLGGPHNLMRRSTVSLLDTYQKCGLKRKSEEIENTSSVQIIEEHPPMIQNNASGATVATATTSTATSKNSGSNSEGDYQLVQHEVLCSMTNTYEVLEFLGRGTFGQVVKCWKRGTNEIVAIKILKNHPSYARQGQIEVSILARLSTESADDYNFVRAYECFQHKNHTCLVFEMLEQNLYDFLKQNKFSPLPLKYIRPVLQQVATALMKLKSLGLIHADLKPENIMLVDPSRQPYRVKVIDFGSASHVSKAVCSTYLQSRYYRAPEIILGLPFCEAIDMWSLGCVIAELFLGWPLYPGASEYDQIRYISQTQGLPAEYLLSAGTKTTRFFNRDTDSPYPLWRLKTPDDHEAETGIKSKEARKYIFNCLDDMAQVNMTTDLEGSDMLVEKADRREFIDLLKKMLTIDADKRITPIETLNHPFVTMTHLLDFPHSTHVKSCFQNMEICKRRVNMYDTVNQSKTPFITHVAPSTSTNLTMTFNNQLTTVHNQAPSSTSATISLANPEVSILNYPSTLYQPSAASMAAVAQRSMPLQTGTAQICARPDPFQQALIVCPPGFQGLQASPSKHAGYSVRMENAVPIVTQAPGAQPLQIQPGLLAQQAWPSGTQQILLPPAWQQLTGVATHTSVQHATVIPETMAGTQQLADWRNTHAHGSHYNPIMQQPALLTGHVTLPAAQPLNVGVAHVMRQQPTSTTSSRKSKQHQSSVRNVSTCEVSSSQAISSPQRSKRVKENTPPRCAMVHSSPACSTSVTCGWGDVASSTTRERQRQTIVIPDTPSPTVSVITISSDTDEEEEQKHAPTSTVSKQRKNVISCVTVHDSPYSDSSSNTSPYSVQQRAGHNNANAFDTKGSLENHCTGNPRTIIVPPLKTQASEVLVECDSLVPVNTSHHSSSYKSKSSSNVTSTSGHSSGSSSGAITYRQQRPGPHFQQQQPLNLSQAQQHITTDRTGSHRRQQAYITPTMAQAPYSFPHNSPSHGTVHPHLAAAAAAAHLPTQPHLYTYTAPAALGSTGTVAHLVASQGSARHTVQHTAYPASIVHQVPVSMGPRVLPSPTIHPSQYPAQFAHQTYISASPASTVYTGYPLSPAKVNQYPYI
# [21] = target: T21, panel of 370 protein kinases (Homo sapiens, UniProt P54756); details: kinase EPHA5
# T21 construct: purchased Reaction Biology Corporation (assay service)
# T21 sequence (P54756 25-1037): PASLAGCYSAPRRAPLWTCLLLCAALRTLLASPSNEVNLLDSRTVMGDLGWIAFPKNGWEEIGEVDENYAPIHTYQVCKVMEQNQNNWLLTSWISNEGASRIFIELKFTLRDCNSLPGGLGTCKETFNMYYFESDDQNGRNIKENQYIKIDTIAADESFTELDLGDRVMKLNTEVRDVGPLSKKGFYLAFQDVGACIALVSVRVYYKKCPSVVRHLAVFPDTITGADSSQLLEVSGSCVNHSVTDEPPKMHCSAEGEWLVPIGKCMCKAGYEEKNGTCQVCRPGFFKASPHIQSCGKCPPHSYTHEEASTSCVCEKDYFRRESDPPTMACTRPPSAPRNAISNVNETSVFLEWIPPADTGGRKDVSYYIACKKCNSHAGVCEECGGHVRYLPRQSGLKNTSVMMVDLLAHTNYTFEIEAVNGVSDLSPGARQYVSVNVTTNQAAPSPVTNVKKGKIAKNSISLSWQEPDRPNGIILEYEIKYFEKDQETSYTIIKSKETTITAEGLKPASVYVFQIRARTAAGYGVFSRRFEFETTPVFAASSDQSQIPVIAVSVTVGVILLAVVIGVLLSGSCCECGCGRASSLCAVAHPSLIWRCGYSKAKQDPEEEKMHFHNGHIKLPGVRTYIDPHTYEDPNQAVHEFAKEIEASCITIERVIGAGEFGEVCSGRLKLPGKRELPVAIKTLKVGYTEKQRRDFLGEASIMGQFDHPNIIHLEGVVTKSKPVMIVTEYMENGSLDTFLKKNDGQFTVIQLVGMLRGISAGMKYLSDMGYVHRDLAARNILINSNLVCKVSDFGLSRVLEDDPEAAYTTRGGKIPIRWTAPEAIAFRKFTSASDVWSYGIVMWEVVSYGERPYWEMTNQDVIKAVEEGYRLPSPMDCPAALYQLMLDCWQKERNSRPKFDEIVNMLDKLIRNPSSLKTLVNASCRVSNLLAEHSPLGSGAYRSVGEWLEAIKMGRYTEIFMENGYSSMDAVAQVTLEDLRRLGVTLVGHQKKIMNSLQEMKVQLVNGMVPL
# [22] = target: T22, panel of 370 protein kinases (Homo sapiens, UniProt P35626); details: 2 h, kinase GRK3; read-out: % Enzyme Activity (relative to DMSO controls)
# T22 construct: purchased Reaction Biology Corporation (assay service)
structure (smiles),measurement,setting,value
CCN1CCN(C(=O)c2ccc(Nc3ncc(F)c(-c4ccc5nc(N(C)C)sc5c4)n3)nc2)CC1 [YK-2-69],remaining activity at 1 µM,[1],108%
same,remaining activity at 1 µM,[2],100%
same,remaining activity at 1 µM,[3],103%
same,remaining activity at 1 µM,[4],104%
same,remaining activity at 1 µM,[5],89.2%
same,remaining activity at 1 µM,[6],96.7%
same,remaining activity at 1 µM,[7],104%
same,remaining activity at 1 µM,[8],103%
same,remaining activity at 1 µM,[9],80.1%
same,remaining activity at 1 µM,[10],90.6%
same,remaining activity at 1 µM,[11],102%
same,% Enzyme Activity (relative to DMSO controls),[12],98.55% and 92.68%
same,remaining activity at 1 µM,[13],62.2%
same,remaining activity at 1 µM,[14],98.2%
same,remaining activity at 1 µM,[15],82%
same,remaining activity at 1 µM,[16],99.2%
same,% Enzyme Activity (relative to DMSO controls),[17],107.35% and 104.50%
same,remaining activity at 1 µM,[18],93%
same,remaining activity at 1 µM,[19],83.2%
same,remaining activity at 1 µM,[20],28.1%
same,% Enzyme Activity (relative to DMSO controls),[21],97.73% and 95.85%
same,remaining activity at 1 µM,[22],108%
